Earlier results on two substances are cited in patent US20150376254A1, “GAMMA-MSH ANALOGUES” (TXP Pharma GmbH, priority 2014, published 2015).

Data set [1] has as its system normal human lung fibroblasts (NHLF). The note with it: TGFβ1-induced NHLF; at higher doses; detailed in U.S. provisional application 61/785,631.
For a further data set, the target named is MC5r (Homo sapiens, UniProt P33032). The settings on record: J. Med. Chem. 2005, 48, 1839-1848.
For a further data set, the target named is MC3r (Homo sapiens, UniProt P41968). The settings on record: relative to MC4r; J. Med. Chem. 2005, 48, 1839-1848.
Chain of MC3r (P41968 whole entry): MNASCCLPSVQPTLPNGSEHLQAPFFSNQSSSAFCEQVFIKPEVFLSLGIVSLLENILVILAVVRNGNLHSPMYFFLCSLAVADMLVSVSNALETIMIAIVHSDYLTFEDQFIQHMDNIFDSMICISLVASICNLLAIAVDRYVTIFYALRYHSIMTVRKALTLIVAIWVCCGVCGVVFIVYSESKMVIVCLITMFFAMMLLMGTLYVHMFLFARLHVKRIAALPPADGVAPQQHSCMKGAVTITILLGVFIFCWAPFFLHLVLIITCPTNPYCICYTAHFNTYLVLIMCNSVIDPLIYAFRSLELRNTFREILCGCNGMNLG

Chain of MC5r (P33032 whole entry): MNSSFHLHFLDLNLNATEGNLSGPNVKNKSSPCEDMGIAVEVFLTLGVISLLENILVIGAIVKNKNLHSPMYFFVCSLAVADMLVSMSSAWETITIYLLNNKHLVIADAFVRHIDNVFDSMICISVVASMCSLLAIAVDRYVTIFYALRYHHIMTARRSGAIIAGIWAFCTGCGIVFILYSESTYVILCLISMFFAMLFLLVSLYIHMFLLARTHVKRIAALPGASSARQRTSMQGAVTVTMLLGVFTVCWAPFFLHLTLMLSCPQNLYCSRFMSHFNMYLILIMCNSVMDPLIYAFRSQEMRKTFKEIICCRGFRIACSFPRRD

For “ACTH: adrenocorticotropic hormone, a melanocortin peptide primarily binding MC2R (SYSMEHFRWGKPVGKKRRPVKVYPNGAEDESAEAFPLEF; Corticotropin; UniProt P01189 138-176, looked up)”, the ECM collagen entry in data set [1] was “statistically significant reduction”. For the substance γ-MSH, the “binding affinity against the MC5r” value at MC5r was “weak”. For the same substance, the “affinity to the MC3r” value at MC3r is “higher affinity”.
